Measurements published in patent US8952054B2, “Small molecule inhibitors of MUC1 and methods of identifying the same” (Dana-Farber Cancer Institute, Inc., priority 2010, dated 2015).

Experiments:
hyperammonemia = conditions: oral administration, ammonium chloride-treated rats; cited from earlier work
MUC1-CD = biological target: T1, MUC1-CD (Homo sapiens, UniProt P15941); test: Plate-based MUC1-CD dimerization inhibition assay (primary screening); assay type: biochemical; conditions: library of Table 1
T1 construct: the 72 aa cytoplasmic domain (CD); His; made in house
T1 sequence (P15941 1184-1255 limits assumed): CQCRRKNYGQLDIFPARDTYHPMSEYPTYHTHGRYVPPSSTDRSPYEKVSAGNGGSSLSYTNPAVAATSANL
Procedure: FIG. 6—Schematic Illustration of Primary HTS Screening Assay for MUC1-CD Dimerization. MUC1-CD protein was coated on a 96 well plate and then incubated with Biotinylated MUC1-CD that binds to non-biotinylated MUC1-CD protein by dimer formation. Bound biotinylated MUC1-CD protein was detected by incubation with Streptavin-HRP+peroxidase substrate system.
FIGS. 11A-C—Identification of MUC1-CD dimerization inhibitors in a small molecule screen. (FIG. 11A) Schematic representation of the MUC1-C subunit with the 58 amino acid (aa) extracellular domain (ECD), the 28 aa transmembrane domain (TD) and the 72 aa cytoplasmic domain (CD; SEQ ID NO: 1). The sequence of MUC1-CD is included with highlighting of the CQC dimerization motif. (FIG. 11B) The assay for identification of MUC1-CD dimerization inhibitors is depicted with the following steps: (i) coating of MUC1-CD onto a microplate, (ii) adding soluble biotinylated MUC1-C and […] compound, and (iii) addition of streptavidin-HRP and then peroxide with conversion by HRP to a blue color. The signal is measured by EnVision and proportional to the amount of bound biotin-labeled MUC1-CD.
FIGS. 12A-D—Apigenin is an inhibitor of MUC1-CD dimerization in vitro and in cells. (FIG. 12A) Structures of apigenin and its analogue baicalein. Using the in vitro screening assay, dimerization of MUC1-CD was assessed in the presence of 100 μM apigenin or 100 μM baicalein each dissolved in 0.1% DMSO. The results (mean±SD of 3 determinations) are expressed as percentage of control dimerization in the presence of DMSO alone. (FIG. 12B) MUC1-CD dimerization was assessed in the presence of the indicated concentrations of apigenin in the in vitro screening assay. […] (FIG. 12C) Soluble MUC1-CD was incubated in the presence of 1% DMSO, 1 mM apigenin or 1 mM baicalein for 1 h at room temperature. Monomers and dimmers were assessed by electrophoresis in a non-reducing gel and immunoblotting with anti-MUC1-C. (FIG. 12D) 293 cells were transiently transfected to express an empty vector or GFP-MUC1-CD and Flag-MUC1-CD. At six hours after transfection, the cells were left untreated, and treated with 75 μM apigenin or baicalein for 3 days. Whole-cell lysates were precipitated with anti-Flag, and the precipitates were immunoblotted with the indicated antibodies.
Multi-well (96- or 384-well) plates are coated with non-biotinylated MUC1-CD, and biotinylated MUC1-CD is added to the plates to initiate MUC1-CD dimerization or oligomerization. A luminescent substrate for biotin binding is added to the plate, followed by washing. Resulting fluorescence is detected by luminescence detection at absorbance 405 nm. A complete schematic illustration of this assay is described in […]. Test compounds are added at multiple concentrations to the plates and, following incubation and washing, the plates are read for luminescent detection. The formation of MUC1-CD dimers is detected.
To develop a HTS assay for compounds that inhibit MUC1-CD dimerization, the inventors generated purified His-tagged MUC1-CD protein. They also generated a biotin-labeled His-tagged MUC1-CD protein using a standard biotinylation kit. Biotinylated and non-biotinylated proteins were purified through Nickel columns.
The inventors coated 96- or 384-well plates with non-biotinylated MUC1-CD protein and added biotinylated MUC1-CD protein to the plates to initiate MUC1-CD/MUC1-CD dimerization or oligomerization. They then added a substrate to the plate which will bind to the biotinylated protein (only at the dimer or oligomer state) and the resultant fluorescence was detected by luminescence detection at absorbance 405 nm. A complete schematic illustration of this assay is described in FIG. 6.
Individual compounds from the chemical libraries were then added at multiple concentrations (0.01 μM to 100 μM) to the plates and following incubation and washing, the plates were read by luminescence detection at […]. […]

xanthine oxidase = xanthine oxidase (Homo sapiens, UniProt P47989); conditions: cited from earlier work
Chain of xanthine oxidase (P47989 whole entry, species assumed): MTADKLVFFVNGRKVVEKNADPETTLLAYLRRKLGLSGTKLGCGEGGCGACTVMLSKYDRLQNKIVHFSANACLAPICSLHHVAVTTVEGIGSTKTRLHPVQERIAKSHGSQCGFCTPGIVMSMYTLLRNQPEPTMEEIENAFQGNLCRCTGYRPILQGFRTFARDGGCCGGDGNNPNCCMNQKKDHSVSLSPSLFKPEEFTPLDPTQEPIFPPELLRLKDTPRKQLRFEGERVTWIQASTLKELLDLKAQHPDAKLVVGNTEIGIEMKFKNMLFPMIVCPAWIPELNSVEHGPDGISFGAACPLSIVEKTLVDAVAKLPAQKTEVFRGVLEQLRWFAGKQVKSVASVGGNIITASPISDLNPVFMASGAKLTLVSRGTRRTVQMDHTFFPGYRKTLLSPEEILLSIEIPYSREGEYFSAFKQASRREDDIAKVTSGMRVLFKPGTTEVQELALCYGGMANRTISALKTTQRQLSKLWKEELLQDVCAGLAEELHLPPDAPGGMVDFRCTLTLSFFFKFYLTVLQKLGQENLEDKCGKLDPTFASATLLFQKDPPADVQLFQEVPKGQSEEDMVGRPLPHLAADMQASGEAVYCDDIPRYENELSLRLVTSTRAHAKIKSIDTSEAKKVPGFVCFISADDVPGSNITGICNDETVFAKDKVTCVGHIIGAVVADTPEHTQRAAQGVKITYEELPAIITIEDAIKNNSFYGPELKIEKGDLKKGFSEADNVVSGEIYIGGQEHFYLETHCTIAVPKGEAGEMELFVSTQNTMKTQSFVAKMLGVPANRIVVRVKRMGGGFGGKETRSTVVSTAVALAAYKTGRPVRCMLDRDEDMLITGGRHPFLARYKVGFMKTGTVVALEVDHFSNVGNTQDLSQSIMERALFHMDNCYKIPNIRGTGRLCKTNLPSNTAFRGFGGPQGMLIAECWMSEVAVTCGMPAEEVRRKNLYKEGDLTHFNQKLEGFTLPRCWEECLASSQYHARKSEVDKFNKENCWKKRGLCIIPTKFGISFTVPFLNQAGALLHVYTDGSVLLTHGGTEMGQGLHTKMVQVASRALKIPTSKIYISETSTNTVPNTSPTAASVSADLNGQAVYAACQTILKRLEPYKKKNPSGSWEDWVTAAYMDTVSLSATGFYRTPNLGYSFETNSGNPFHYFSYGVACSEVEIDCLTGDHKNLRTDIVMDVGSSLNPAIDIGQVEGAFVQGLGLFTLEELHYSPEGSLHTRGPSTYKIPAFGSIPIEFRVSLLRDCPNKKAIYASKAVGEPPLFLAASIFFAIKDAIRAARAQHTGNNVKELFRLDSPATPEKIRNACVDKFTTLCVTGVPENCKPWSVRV

His-MUC1-CD = biological target: T2, His-MUC1-CD (Homo sapiens, UniProt P15941); conditions: BIAcore analysis, Leng et al., 2007; read-out: dissociation constant (Kd) of MUC1-CD dimers; cited from earlier work
T2 construct: made in house
T2 sequence (P15941 1184-1255): T1 sequence (P15941 1184-1255 limits assumed)

[1] = cited from earlier work
[2] = system: MUC1-expressing cancer cells; test: Secondary screen against MUC1-expressing cancer cells in vitro; assay type: cell-based; conditions: legend: ZR-75-1 breast carcinoma cells, 2 days, anti-MUC1-C immunoblot
Procedure: ZR-75-1 breast carcinoma cells were treated with […] Kaempterol for 2 days. Total cell lysates were then analyzed by immunoblotting with anti-MUC1-C antibody (FIG. 17A) or with anti-Actin antibodies (FIG. 17B).
Initial screens were performed in the presence of compounds at a concentration of 100 μM.

severe sepsis = conditions: from about 31% without; cited from earlier work
[3] = biological target: T3, aryl hydrocarbon receptor (AHR) (Rattus norvegicus, UniProt P41738); conditions: rat liver cytosol, added just before TCDD; cited from earlier work
T3 construct: Addition of PD98059 to rat liver cytosol just before the addition of TCDD; from tissue; host or cells: rat liver cytosol
T3 sequence (P41738 10-853): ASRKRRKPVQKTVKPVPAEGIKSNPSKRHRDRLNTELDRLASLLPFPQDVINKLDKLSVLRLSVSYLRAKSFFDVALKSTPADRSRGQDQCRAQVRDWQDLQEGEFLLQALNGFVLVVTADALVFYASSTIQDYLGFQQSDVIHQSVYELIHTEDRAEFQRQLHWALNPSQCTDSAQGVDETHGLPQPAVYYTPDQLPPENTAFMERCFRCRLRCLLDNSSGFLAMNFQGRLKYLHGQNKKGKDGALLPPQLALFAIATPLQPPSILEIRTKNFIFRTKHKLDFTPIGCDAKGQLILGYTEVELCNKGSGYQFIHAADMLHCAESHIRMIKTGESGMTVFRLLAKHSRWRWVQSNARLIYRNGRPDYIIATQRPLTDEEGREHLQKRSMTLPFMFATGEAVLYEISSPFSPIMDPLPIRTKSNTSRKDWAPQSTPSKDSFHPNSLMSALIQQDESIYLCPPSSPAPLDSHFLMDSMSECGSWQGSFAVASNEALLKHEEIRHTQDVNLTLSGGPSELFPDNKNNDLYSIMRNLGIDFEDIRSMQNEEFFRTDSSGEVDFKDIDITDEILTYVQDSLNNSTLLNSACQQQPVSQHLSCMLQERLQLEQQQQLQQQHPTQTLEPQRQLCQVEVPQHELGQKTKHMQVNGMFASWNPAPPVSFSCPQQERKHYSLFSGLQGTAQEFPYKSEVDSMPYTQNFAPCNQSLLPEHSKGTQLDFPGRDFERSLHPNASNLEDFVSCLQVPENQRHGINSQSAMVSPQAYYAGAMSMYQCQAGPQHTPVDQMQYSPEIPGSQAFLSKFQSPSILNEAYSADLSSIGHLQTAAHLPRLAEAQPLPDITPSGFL

[4] = system: mitogen-activated protein kinase kinase (MEK); conditions: cited from earlier work

O=c1c(O)c(-c2ccc(O)cc2O)oc2cc(O)cc(O)c12 [Morin, 3,5,7,2′,4′-pentahydroxyflavone]
ammonia, urea, lipid peroxidation (hyperammonemia): significant reduction in ammonia, urea, lipid peroxidation | initial library screen result (MUC1-CD): MUC1 dimerization inhibitory compounds

O=c1c(O)c(-c2ccc(O)c(O)c2)oc2cc(O)ccc12 [Fisetin]
inhibition of xanthine oxidase (xanthine oxidase): inhibit xanthine oxidase | initial library screen result (MUC1-CD): MUC1 dimerization inhibitory compounds

MUC1-CD: 72-amino acid MUC1 cytoplasmic domain (SEQ ID NO:1)
Kd (His-MUC1-CD): 33 nM

O=c1c(O)c(-c2ccc(O)cc2)oc2cc(O)cc(O)c12 [Kaempferol]
solubility in organic solvents ([1]; hot ethanol and diethyl ether): soluble in hot ethanol and diethyl ether | solubility in water ([1]; water): slightly soluble in water | inhibition (FIGS. 17A-B) [2]: showed inhibition

drotrecogin alfa
mortality (severe sepsis): about 25%

COc1cccc(-c2cc(=O)c3ccccc3o2)c1N [PD98059, 2-(2′-amino-3′-methoxyphenyl)-oxanaphthalen-4-one]
TCDD binding to AHR [3]: suppressed TCDD binding | initial library screen result (MUC1-CD): MUC1 dimerization inhibitory compounds | inhibition of MEK [4]: potent inhibitor
